Structures can show the parent of a compound that is named as a salt.
Columns and labels:
NCI-H929 = experiment: Cytostatic activity on human multiple myeloma cell line NCI-H929 (WST-1); assay type: cell-based; conditions: 1 μmol/L, 72 hours; for inhibition at 1 µM: Homo sapiens, NCI-H929, 72 h, read-out: cytostatic rate (%) H929 (1 μmol/L)
In short: (§1)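 Cells pre-cultured 24 h at 37 °C, 5% CO2, then exposed 72 h to compound at final 1 or 10 μmol/L (0.1% DMSO). WST-1 added for 2 h, absorbance at 450 nm (ref 690 nm). Cytostatic rate = 100 minus relative growth, with DMSO control as 100% and blank as 0%.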

KMS-11 = experiment: Cytostatic activity on human multiple myeloma cell line KMS-11 (WST-1); assay type: cell-based; conditions: 1 μmol/L, 72 hours; for inhibition at 1 µM: Homo sapiens, KMS-11, 72 h, read-out: cytostatic rate (%) KMS-11 (1 μmol/L)
In short: as §1

IGF-1R = target: T1, IGF-1R (Homo sapiens, UniProt P08069); experiment: IGF-1R inhibitory activity (kinase reaction, time-resolved fluoroimmunoassay); assay type: biochemical; conditions: IGF-1R active recombinant enzyme, test compound 10 μmol/L
T1 construct: purchased Upstate Co. 14-465
In short: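 Compounds were tested at a single 10 μmol/L concentration. Each was incubated with recombinant IGF-1R (200 μg/L), 10 mmol/L ATP, MgCl2/MnCl2 and Na3VO4 (pH 7.5) on immobilized poly(Glu-Tyr) peptide for 30 min at 24° C. Eu-anti-phosphotyrosine time-resolved fluorescence (340/615 nm) gave relative activity against no-compound and no-enzyme wells, reported as % inhibition.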

T1 sequence (P08069 959-1367 limits assumed): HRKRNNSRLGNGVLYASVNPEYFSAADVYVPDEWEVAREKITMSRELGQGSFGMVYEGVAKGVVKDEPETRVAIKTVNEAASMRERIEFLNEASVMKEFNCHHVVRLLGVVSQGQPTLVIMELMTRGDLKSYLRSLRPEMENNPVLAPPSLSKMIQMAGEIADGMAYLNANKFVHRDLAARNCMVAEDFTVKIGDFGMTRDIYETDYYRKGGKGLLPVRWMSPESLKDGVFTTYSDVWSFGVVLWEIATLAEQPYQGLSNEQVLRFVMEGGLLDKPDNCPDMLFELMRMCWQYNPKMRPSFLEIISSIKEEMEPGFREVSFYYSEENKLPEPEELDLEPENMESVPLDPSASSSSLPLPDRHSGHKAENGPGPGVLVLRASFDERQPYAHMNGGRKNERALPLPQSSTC

inhibition at 10 µM (IGF-1R) [%]	Structure (SMILES)	inhibition at 1 µM (NCI-H929) [%]	inhibition at 1 µM (KMS-11) [%]	cytostatic rate (%) H929 (1 μmol/L) (NCI-H929) [%]	cytostatic rate (%) KMS-11 (1 μmol/L) (KMS-11) [%]	inhibitory activity (%) at 10 μmol/L (IGF-1R) [%]
100	Cc1ccsc1C(=O)Nc1cc(CN2CCN(C(=O)CO)CC2)ccc1/C=C/c1n[nH]c2ccccc12 [Compound 248, (E)-N-{2-[2-(1H-indazol-3-yl)vinyl]-5-[4-(2-hydroxyacetyl)piperazin-1-ylmethyl]phenyl}-3-methylthiophene-2-carboxamide]	114	113	–	–	–
100	COCCN(CCN1CCOCC1)C(=O)c1ccc(/C=C/c2n[nH]c3ccccc23)c(NC(=O)c2sccc2C)c1 [Compound 249, (E)-N-(2-[2-(1H-indazol-3-yl)vinyl]-5-{N-(2-methoxyethyl)-N-[2-(morpholin-4-yl)ethyl]carbamoyl}phenyl)-3-methylthiophene-2-carboxamide]	113	113	–	–	–
102	Cc1ccsc1C(=O)Nc1cc(OCCN2CCOCC2)ccc1/C=C/c1n[nH]c2ccccc12 [Compound 251, (E)-N-{2-[2-(1H-indazol-3-yl)vinyl]-5-[2-(morpholin-4-yl)ethoxy]phenyl}-3-methylthiophene-2-carboxamide]	112	114	–	–	–
101	COCCN(C)Cc1ccc(/C=C/c2n[nH]c3ccccc23)c(NC(=O)c2sccc2C)c1 [Compound 252, (E)-N-{2-[2-(1H-indazol-3-yl)vinyl]-5-[N-(2-methoxyethyl)methylaminomethyl]phenyl}-3-methylthiophene-2-carboxamide]	120	113	–	–	–
99.5	Nc1cccc2c1C(=O)N(c1ccc(F)cc1/C=C/c1n[nH]c3ccccc13)C2=O [Compound 254, (E)-4-amino-2-{4-fluoro-2-[2-(1H-indazol-3-yl)vinyl]phenyl}isoindole-1,3-dione]	116	81.2	–	–	–
100	CCN(CC)CCN(CCO)C(=O)c1ccc(/C=C/c2n[nH]c3ccccc23)c(NC(=O)c2sccc2C)c1 [Compound 255, (E)-N-(5-{N-[2-(diethylamino)ethyl]-N-(2-hydroxyethyl)carbamoyl}-2-[2-(1H-indazol-3-yl)vinyl]phenyl)-3-methylthiophene-2-carboxamide]	121	97.6	–	–	–
100	COCCCN(CCO)C(=O)c1ccc(/C=C/c2n[nH]c3ccccc23)c(NC(=O)c2sccc2C)c1 [Compound 256, (E)-N-{5-[N-(2-hydroxyethyl)-N-(3-methoxypropyl)carbamoyl]-2-[2-(1H-indazol-3-yl)vinyl]phenyl}-3-methylthiophene-2-carboxamide]	122	105	–	–	–
102	Cc1ccsc1C(=O)Nc1cc(C(=O)N(CCO)CCN2CCOCC2)ccc1/C=C/c1n[nH]c2ccccc12 [Compound 259, (E)-N-{5-[N-(2-hydroxyethyl)-N-(2-morpholinoethyl)carbamoyl]-2-[2-(1H-indazol-3-yl)vinyl]phenyl}-3-methylthiophene-2-carboxamide]	118	104	–	–	–
102	COCCN(C)C(=O)c1ccc(/C=C/c2n[nH]c3ccccc23)c(NC(=O)c2sccc2C)c1 [Compound 260, (E)-N-{2-[2-(1H-indazol-3-yl)vinyl]-5-[N-(2-methoxyethyl)-N-methylcarbamoyl]phenyl}-3-methylthiophene-2-carboxamide]	119	118	–	–	–
101	COc1ccc(/C=C/c2n[nH]c3ccccc23)c(NC(=O)c2sccc2C)c1OC [Compound 261, (E)-N-{6-[2-(1H-indazol-3-yl)vinyl]-2,3-dimethoxyphenyl}-3-methylthiophene-2-carboxamide]	115	121	–	–	–
103	Cc1ccsc1C(=O)Nc1cc(N2CCN(C)CC2)ccc1/C=C/c1n[nH]c2ccccc12 [Compound 262, (E)-N-{2-[2-(1H-indazol-3-yl)vinyl]-5-(4-methylpiperazin-1-yl)phenyl}-3-methylthiophene-2-carboxamide]	119	119	–	–	–
102	Cc1ccsc1C(=O)Nc1cc(CNC2CCNCC2)ccc1/C=C/c1n[nH]c2ccccc12 [Compound 264, (E)-N-{2-[2-(1H-indazol-3-yl)vinyl]-5-(piperidin-4-ylaminomethyl)phenyl}-3-methylthiophene-2-carboxamide]	111	58.5	–	–	–
98.4	Cc1ccsc1C(=O)Nc1cc(F)ccc1/C=C/c1n[nH]c2ccccc12 [Compound 265, (E)-N-{5-fluoro-2-[2-(1H-indazol-3-yl)vinyl]phenyl}-3-methylthiophene-2-carboxamide]	115	96.9	–	–	–

Continued, compound first:

Structure (SMILES)	inhibition at 10 µM (IGF-1R) [%]	inhibition at 1 µM (NCI-H929) [%]	inhibition at 1 µM (KMS-11) [%]	cytostatic rate (%) H929 (1 μmol/L) (NCI-H929) [%]	cytostatic rate (%) KMS-11 (1 μmol/L) (KMS-11) [%]	inhibitory activity (%) at 10 μmol/L (IGF-1R) [%]
CCN(CC)CCNC(=O)c1ccc(/C=C/c2n[nH]c3ccccc23)c(NC(=O)c2sccc2C)c1 [Compound 230, (E)-N-{5-(2-diethylaminoethylcarbamoyl)-2-[2-(1H-indazol-3-yl)vinyl]phenyl}-3-methylthiophene-2-carboxamide hydrochloride]	98.9	124	93.8	–	–	–
Cc1ccsc1C(=O)Nc1cc(C(=O)N2CCN(C(=O)[C@@H]3CCCN3)CC2)ccc1/C=C/c1n[nH]c2ccccc12 [Compound 231, (S)-(E)-N-{2-[2-(1H-indazol-3-yl)vinyl]-5-[4-(pyrrolidin-2-ylcarbonyl)piperazin-1-ylcarbonyl]phenyl}-3-methylthiophene-2-carboxamide]	99.7	122	80.2	–	–	–
Cc1ccsc1C(=O)Nc1cc(CN2CCN(S(C)(=O)=O)CC2)ccc1/C=C/c1n[nH]c2ccccc12 [Compound 232, (E)-N-{2-[2-(1H-indazol-3-yl)vinyl]-5-(4-methanesulfonylpiperazin-1-ylmethyl)phenyl}-3-methylthiophene-2-carboxamide]	101	124	116	–	–	–
Cc1ccsc1C(=O)Nc1cc(CN2CCN(C)CC2)ccc1/C=C/c1n[nH]c2ccccc12 [Compound 234, (E)-N-{2-[2-(1H-indazol-3-yl)vinyl]-5-(4-methylpiperazin-1-ylmethyl)phenyl}-3-methylthiophene-2-carboxamide]	102	118	111	–	–	–
Cc1ccsc1C(=O)Nc1cc(CN2CCC(S(C)(=O)=O)CC2)ccc1/C=C/c1n[nH]c2ccccc12 [Compound 235, (E)-N-{2-[2-(1H-indazol-3-yl)vinyl]-5-(4-methanesulfonylpiperidin-1-ylmethyl)phenyl}-3-methylthiophene-2-carboxamide]	98.3	115	109	–	–	–
CCN(CC)CCNCc1ccc(/C=C/c2n[nH]c3ccccc23)c(NC(=O)c2sccc2C)c1 [Compound 236, (E)-N-{5-[(2-diethylaminoethylamino)methyl]-2-[2-(1H-indazol-3-yl)vinyl]phenyl}-3-methylthiophene-2-carboxamide]	99.5	123	139	–	–	–
CCN(CC)CCOc1ccc(NC(=O)c2sccc2C)c(/C=C/c2n[nH]c3ccccc23)c1 [Compound 237, (E)-N-{2-[2-(1H-indazol-3-yl)vinyl]-4-(2-diethylaminoethoxy)phenyl}-3-methylthiophene-2-carboxamide]	100	120	144	–	–	–
COCCN(CCN1CCOCC1)c1ccc(NC(=O)c2sccc2C)c(/C=C/c2n[nH]c3ccccc23)c1 [Compound 238, (E)-N-{2-[2-(1H-indazol-3-yl)vinyl]-4-[N-(2-methoxyethyl)-2-(morpholin-4-yl)ethylamino]phenyl}-3-methylthiophene-2-carboxamide]	97.1	126	132	–	–	–
Cc1ccsc1C(=O)Nc1cc(C(=O)NC2CCNCC2)ccc1/C=C/c1n[nH]c2ccccc12 [Compound 240, (E)-N-{2-[2-(1H-indazol-3-yl)vinyl]-5-(piperidin-4-ylcarbamoyl)phenyl}-3-methylthiophene-2-carboxamide hydrochloride]	103	105	67	–	–	–
COCC(=O)N1CCN(Cc2ccc(/C=C/c3n[nH]c4ccccc34)c(NC(=O)c3sccc3C)c2)CC1 [Compound 244, (E)-N-{2-[2-(1H-indazol-3-yl)vinyl]-5-[4-(2-methoxyacetyl)piperazin-1-ylmethyl]phenyl}-3-methylthiophene-2-carboxamide]	102	127	124	–	–	–
Cl.Cn1cccc1C(=O)Nc1cc(N2CCOCC2)ccc1/C=C/c1n[nH]c2ccccc12 [Compound 246, (E)-{2-[2-(1H-indazol-3-yl)vinyl]-5-(morpholin-4-yl)phenyl}-1-methyl-1H-pyrrole-2-carboxamide monohydrochloride]	–	–	–	126.7	128.9	100.2
